Laboratory results taken from the supplement of paper PMC10307832.

Key:
Experiment in all cases: relative viability (nuclei count vs DMSO), 5 days (fraction); higher = more cells survive
JZL-184 + Foretinib = compound: C1CN(CCC1C(C2=CC3=C(C=C2)OCO3)(C4=CC5=C(C=C4)OCO5)O)C(=O)OC6=CC=C(C=C6)[N+](=O)[O-] [JZL-184] + COc1cc2c(Oc3ccc(NC(=O)C4(C(=O)Nc5ccc(F)cc5)CC4)cc3F)ccnc2cc1OCCCN1CCOCC1 [Foretinib] (partner 0.25 µM)
Outline: (§1)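 Lung cancer cell lines in 1536-well plates were dosed by pin tool the day after seeding, either with one drug alone or with a fixed anchor-drug dose plus five library-drug doses (not always all listed) in √10 steps. After 5 days, cells were fixed and their nuclei stained in one step (final 0.05% Triton X-100, 1% formaldehyde, 1 ug/ml Hoechst), then counted on 4× images. Relative viability is the nuclei count in treated wells divided by that in vehicle wells. Values are medians of duplicate plates.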

JZL-184 + OSI-027 = compound: C1CN(CCC1C(C2=CC3=C(C=C2)OCO3)(C4=CC5=C(C=C4)OCO5)O)C(=O)OC6=CC=C(C=C6)[N+](=O)[O-] [JZL-184] + COc1cccc2cc(-c3nc([C@H]4CC[C@H](C(=O)O)CC4)n4ncnc(N)c34)[nH]c12 [OSI-027] (partner 0.5 µM)
Outline: as §1

JZL-184 + Crizotinib = compound: C1CN(CCC1C(C2=CC3=C(C=C2)OCO3)(C4=CC5=C(C=C4)OCO5)O)C(=O)OC6=CC=C(C=C6)[N+](=O)[O-] [JZL-184] + C[C@@H](Oc1cc(-c2cnn(C3CCNCC3)c2)cnc1N)c1c(Cl)ccc(F)c1Cl [Crizotinib] (partner 1 µM)
Outline: as §1

JZL-184 + Alpelisib = compound: C1CN(CCC1C(C2=CC3=C(C=C2)OCO3)(C4=CC5=C(C=C4)OCO5)O)C(=O)OC6=CC=C(C=C6)[N+](=O)[O-] [JZL-184] + Cc1nc(NC(=O)N2CCC[C@H]2C(N)=O)sc1-c1ccnc(C(C)(C)C(F)(F)F)c1 [Alpelisib] (partner 2 µM)
Outline: as §1

JZL-184 + Phenformin = compound: C1CN(CCC1C(C2=CC3=C(C=C2)OCO3)(C4=CC5=C(C=C4)OCO5)O)C(=O)OC6=CC=C(C=C6)[N+](=O)[O-] [JZL-184] + N=C(N)NC(=N)NCCc1ccccc1 [Phenformin] (partner 250 µM)
Outline: as §1

Row | Cell Line | relative viability (JZL-184 + Foretinib; first compound 0.04 µM) | relative viability (JZL-184 + Foretinib; first compound 0.4 µM) | relative viability (JZL-184 + Foretinib; first compound 1.265 µM) | relative viability (JZL-184 + Foretinib; first compound 4 µM) | relative viability (JZL-184 + OSI-027; first compound 0.04 µM) | relative viability (JZL-184 + OSI-027; first compound 0.4 µM) | relative viability (JZL-184 + OSI-027; first compound 1.265 µM) | relative viability (JZL-184 + OSI-027; first compound 4 µM) | relative viability (JZL-184 + Crizotinib; first compound 0.04 µM) | relative viability (JZL-184 + Crizotinib; first compound 0.4 µM) | relative viability (JZL-184 + Crizotinib; first compound 1.265 µM) | relative viability (JZL-184 + Crizotinib; first compound 4 µM) | relative viability (JZL-184 + Alpelisib; first compound 0.04 µM) | relative viability (JZL-184 + Alpelisib; first compound 0.4 µM) | relative viability (JZL-184 + Alpelisib; first compound 1.265 µM) | relative viability (JZL-184 + Alpelisib; first compound 4 µM) | relative viability (JZL-184 + Phenformin; first compound 0.04 µM) | relative viability (JZL-184 + Phenformin; first compound 0.4 µM) | relative viability (JZL-184 + Phenformin; first compound 1.265 µM) | relative viability (JZL-184 + Phenformin; first compound 4 µM)
1 | NCI-H1755 | 0.989 | 0.917 | 0.933 | 0.919 | 0.672 | 0.699 | 0.709 | 0.745 | 0.933 | 0.894 | 0.835 | 0.793 | 0.942 | 0.866 | 0.943 | 0.885 | 0.636 | 0.621 | 0.614 | 0.601
2 | NCI-H1915 | 1.15 | 1.01 | 1.18 | 1.07 | 0.659 | 0.604 | 0.698 | 0.585 | 0.924 | 0.821 | 0.902 | 0.84 | 1.08 | 1.04 | 1.04 | 1.04 | 0.378 | 0.364 | 0.377 | 0.367
3 | NCI-H1944 | 0.893 | 0.906 | 0.938 | 0.886 | 0.421 | 0.397 | 0.448 | 0.412 | 1.27 | 1.04 | 1.12 | 1.04 | 0.798 | 0.869 | 0.842 | 0.804 | 0.194 | 0.192 | 0.198 | 0.199
4 | NCI-H1975 | 1.02 | 0.94 | 0.987 | 0.87 | 0.842 | 0.759 | 0.764 | 0.654 | 1.11 | 0.901 | 0.995 | 0.975 | 0.751 | 0.673 | 0.642 | 0.577 | 0.414 | 0.411 | 0.395 | 0.397
5 | NCI-H1993 | 0.769 | 0.669 | 0.758 | 0.816 | 0.523 | 0.498 | 0.497 | 0.532 | 0.956 | 0.805 | 0.934 | 0.903 | 0.719 | 0.72 | 0.711 | 0.677 | 0.428 | 0.476 | 0.487 | 0.47
6 | NCI-H2009 | 1.17 | 0.809 | 1.28 | 1.21 | 0.764 | 0.574 | 0.694 | 0.653 | 1.15 | 1.06 | 1.02 | 1.01 | 1.17 | 1.1 | 1.16 | 1.09 | 0.518 | 0.473 | 0.51 | 0.461
7 | NCI-H2023 | 1.01 | 0.874 | 0.978 | 0.79 | 0.407 | 0.381 | 0.405 | 0.317 | 0.726 | 0.626 | 0.671 | 0.578 | 0.654 | 0.593 | 0.568 | 0.593 | 0.477 | 0.342 | 0.469 | 0.35
8 | NCI-H2085 | 0.954 | 0.827 | 1.12 | 0.96 | 0.444 | 0.592 | 0.795 | 0.649 | 0.969 | 0.806 | 0.808 | 0.844 | 0.946 | 0.904 | 0.905 | 0.811 | 0.433 | 0.682 | 0.843 | 0.737
